This note sets out measurements from patent US11542259B2, “Compounds for the treatment of kinase-dependent disorders” (Exelixis, Inc., priority 2018, dated 2023).

The target of experiment [1] is Mer (Homo sapiens (Human), UniProt Q12866). Nature of the experiment: Mer autophosphorylation ELISA in transient transfected 293A cells. The format is cell-based. The note with it: cellular, MERTK transfected 293A cells. How it is done:
293A cells (Thermo Fisher #R70507) were seeded at 1.5×10^6 cells/well onto 100 mm dish (Greiner #664169), in DMEM (Thermo Fisher #11995-040) containing 10% FBS (Thermo Fisher #26140-079), 1% MEM NEAA (Thermo Fisher #11140-050), 1% GlutaMax (Thermo Fisher #35050-061), and 1% Penicillin Streptomycin (Thermo Fisher #15140-122). 293A cells were incubated at 37° C., 5% CO2 for 24 h and then transfected with 6 μg MERTK DNA (Genecopoeia #EX-Z8208-M02) using TransIT LT1 transfection reagent (Mirus-Bio #MIR2305). After 24 h incubation, the transfected 293A cells were seeded at 1×10^5 cells/well onto 96-well plates (Corning #3904) in DMEM growth medium overnight. Test compounds were serially diluted to produce an 8-point dose curve in fresh serum-free medium to a final concentration of 0.3% DMSO (vehicle) and added to the cells and incubated for 1 h. Cells were then immediately lysed with 150 μL of cold 1× lysis buffer [20 mM Tris, 137 mM sodium chloride, 2 mM EDTA, 10% glycerol, 1% NP-40 alternative, 1 mM activated sodium orthovanadate, 1 mM PefaBloc SC (Sigma-Aldrich #11429868001), protease/phosphatase inhibitor tablet (Thermo Fisher #A32959)]. Lysates were clarified by centrifugation and 50 μL/well added into the human phospho-Mer DuoSet IC ELISA (R&D Systems #DYC2579-2). Assay was performed according to manufacturer's instructions and sample phospho-Mer concentrations were extrapolated using human phospho-Mer control (R&D Systems #841793) as a standard. Positive control wells (100% activity) contained DMSO-treated cell lysates. Negative control wells (0% activity) contained reference inhibitor-treated cell lysates. IC50 values were calculated by nonlinear regression analysis using a 4-parameter logistic curve fit in ActivityBase XE (IDBS).

In experiment [2] the target is AXL (Homo sapiens (Human), UniProt P30530). As to the kind of experiment: AXL autophosphorylation ELISA in A-172 cells. In kind it is cell-based. The note with it: cellular, Gas6 stimulated. In outline: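 Serum-starved (24 h) A-172 glioblastoma cells pretreated 1 h with compounds (8-point curve, 0.3% DMSO), then stimulated 15 min with 1 μg/mL Gas6. Lysate phospho-AXL measured by sandwich ELISA against a phospho-AXL standard; IC50 from 4-parameter logistic fit between DMSO and reference-inhibitor controls.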
Background: An ELISA detects its analyte on a solid surface through an enzyme-linked reagent.

The target in experiment [3] is KDR (Homo sapiens (Human), UniProt P35968). Nature of the experiment: KDR autophosphorylation ELISA in HUVEC cells. In kind it is cell-based. The settings on record: cellular, VEGF165 stimulated. In outline:
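Serum-starved (24 h) primary HUVEC were pretreated 1 h with compounds (8-point dilution, 0.3% DMSO final), then stimulated 5 min with 100 ng/mL VEGF165. Lysate phospho-KDR quantified by sandwich ELISA against a phospho-KDR standard; IC50 by 4-parameter fit, normalised to stimulated DMSO and unstimulated controls.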

For experiment [4], the target named is Met (Homo sapiens (Human), UniProt P08581). Nature of the experiment: Met autophosphorylation ELISA in PC-3 cells. The format is cell-based. The settings on record: cellular, HGF stimulated, read-out: c-Met IC50. An outline of the steps: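 Phospho-Met (panTyr) sandwich ELISA on lysates of PC-3 cells given 100 ng/mL HGF for 10 min after 1 h compound exposure (8-point curve, 0.3% DMSO) following 3 h serum starvation. Normalised to HGF-stimulated DMSO and reference-inhibitor wells; 4-parameter logistic IC50.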

Experiment [5] has as its target Human Met (residues R974-S1390 with A1209G and V1290L) (Homo sapiens, UniProt P08581). Nature of the experiment: Human Met kinase assay (33P radiometric, KinaseProfiler). In kind it is biochemical. The settings on record: 10 μM ATP, read-out: c-Met IC50. How it is done:
(§1) Kinase activity and compound inhibition were investigated using the ^33P-Phosphoryl transfer radiometric kinase assay, performed using the KinaseProfiler™ service of Eurofins Pharma Discovery Services UK Limited. Dose-response experiments were performed using nine compound concentrations in a 96-well microtiter plate. For each assay, all compounds were prepared to a 50× final assay concentration (50 μM) in 100% DMSO, then diluted in a half-log series, with the final top concentration at 1 μM. This working stock of the compound was added to the assay well as the first component in the reaction, followed by the remaining components as detailed in the following assay protocols below. The positive control wells (100% kinase activity) contain all components of the reaction including 2% DMSO (control for solvent effects), except the compound of interest. Blank wells contain all components of the reaction, with the reference inhibitor, staurosporine. This reference compound was used to abolish kinase activity and generated the 0% kinase activity base-line. IC50 values were calculated by nonlinear regression analysis using the sigmoidal dose-response (variable slope) curve fit on XLFit version 5.3 (ID Business Solutions).
Human Met (residues R974-S1390 with A1209G and V1290L, 3.4 nM) was incubated with 8 mM MOPS pH 7.0, 0.2 mM EDTA, 250 μM KKKGQEEEYVFIE (SEO ID NO. 45), 1 mM sodium orthovanadate, 5 mM […], 10 mM magnesium acetate, and 10 μM [γ-33P-ATP]. The reaction was initiated by the addition of the Mg/ATP mix. After incubation for 40 minutes at room temperature, the reaction was stopped by the addition of phosphoric acid to a concentration of 0.5%. A reaction aliquot of […] was then spotted onto a P30 filtermat and washed four times for 4 minutes in 0.425% phosphoric acid and once in methanol prior to drying and scintillation counting. Incorporated 33P was measured using the Wallac Microbeta scintillation counter (Perkin Elmer).

Experiment [6] addresses Human Mer (residues R557-E882 with H628Q and R794A) (Homo sapiens (Human), UniProt Q12866). Nature of the experiment: Human Mer kinase assay (33P radiometric, KinaseProfiler). The format is biochemical. The note with it: 10 μM ATP. How it is done: as §1
Human Mer (residues R557-E882 with H628Q and R794A, 0.7 nM) was incubated with 8 mM MOPS pH 7.0, 0.2 mM EDTA, 30 mM NaCl, 250 μM GGMEDIYFEFMGGKKK (SEO ID NO. 44). 10 mM magnesium acetate, and 10 μM [γ-^33P-ATP]. The reaction was initiated by the addition of the Mg/ATP mix. After incubation for 40 minutes at room temperature, the reaction was stopped by the addition of phosphoric acid to a concentration of 0.5%. A reaction aliquot of 10 μL was then spotted onto a P30 filtermat and washed four times for 4 minutes in 0.425% phosphoric acid and once in methanol prior to drying and scintillation counting. Incorporated ^33P was measured using the Wallac Microbeta scintillation counter (Perkin Elmer).

Experiment [7] addresses Human Axl (residues H473-A894 with Q764R) (Homo sapiens (Human), UniProt P30530, Q764R). As to the kind of experiment: Human AXL kinase assay (33P radiometric, KinaseProfiler). In kind it is biochemical. The settings on record: 10 μM ATP. How it is done: as §1
Human Axl (residues H473-A894 with Q764R, 161 nM) was incubated with 8 mM MOPS pH 7.0, 0.2 mM EDTA, 250 μM KKSRGDYMTMQIG (SEO ID NO. 43) 10 mM magnesium acetate and 10 μM [γ-33P-ATP]. The reaction was initiated by the addition of the Mg/ATP mix. After incubation for 40 minutes at room temperature, the reaction was stopped by the addition of phosphoric acid to a concentration of 0.5%. A reaction aliquot of 10 μL was then spotted onto a P30 filtermat and washed four times for 4 minutes in 0.425% phosphoric acid and once in methanol prior to drying and scintillation counting. Incorporated ^33P was measured using the Wallac Microbeta scintillation counter (Perkin Elmer).

pIC50: −log10 of the molar value.

Human Mer (residues R557-E882 with H628Q and R794A), sequence (Q12866 557-882, stated change not applied): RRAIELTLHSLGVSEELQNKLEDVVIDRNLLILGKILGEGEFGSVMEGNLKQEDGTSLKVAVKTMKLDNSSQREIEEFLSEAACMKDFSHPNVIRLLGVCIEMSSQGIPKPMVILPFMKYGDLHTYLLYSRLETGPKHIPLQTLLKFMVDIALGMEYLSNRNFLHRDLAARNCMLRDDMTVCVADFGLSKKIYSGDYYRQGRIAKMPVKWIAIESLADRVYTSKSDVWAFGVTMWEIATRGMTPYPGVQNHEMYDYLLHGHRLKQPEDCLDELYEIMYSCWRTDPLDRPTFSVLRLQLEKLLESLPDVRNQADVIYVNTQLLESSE
Mer, sequence (Q12866 21-999): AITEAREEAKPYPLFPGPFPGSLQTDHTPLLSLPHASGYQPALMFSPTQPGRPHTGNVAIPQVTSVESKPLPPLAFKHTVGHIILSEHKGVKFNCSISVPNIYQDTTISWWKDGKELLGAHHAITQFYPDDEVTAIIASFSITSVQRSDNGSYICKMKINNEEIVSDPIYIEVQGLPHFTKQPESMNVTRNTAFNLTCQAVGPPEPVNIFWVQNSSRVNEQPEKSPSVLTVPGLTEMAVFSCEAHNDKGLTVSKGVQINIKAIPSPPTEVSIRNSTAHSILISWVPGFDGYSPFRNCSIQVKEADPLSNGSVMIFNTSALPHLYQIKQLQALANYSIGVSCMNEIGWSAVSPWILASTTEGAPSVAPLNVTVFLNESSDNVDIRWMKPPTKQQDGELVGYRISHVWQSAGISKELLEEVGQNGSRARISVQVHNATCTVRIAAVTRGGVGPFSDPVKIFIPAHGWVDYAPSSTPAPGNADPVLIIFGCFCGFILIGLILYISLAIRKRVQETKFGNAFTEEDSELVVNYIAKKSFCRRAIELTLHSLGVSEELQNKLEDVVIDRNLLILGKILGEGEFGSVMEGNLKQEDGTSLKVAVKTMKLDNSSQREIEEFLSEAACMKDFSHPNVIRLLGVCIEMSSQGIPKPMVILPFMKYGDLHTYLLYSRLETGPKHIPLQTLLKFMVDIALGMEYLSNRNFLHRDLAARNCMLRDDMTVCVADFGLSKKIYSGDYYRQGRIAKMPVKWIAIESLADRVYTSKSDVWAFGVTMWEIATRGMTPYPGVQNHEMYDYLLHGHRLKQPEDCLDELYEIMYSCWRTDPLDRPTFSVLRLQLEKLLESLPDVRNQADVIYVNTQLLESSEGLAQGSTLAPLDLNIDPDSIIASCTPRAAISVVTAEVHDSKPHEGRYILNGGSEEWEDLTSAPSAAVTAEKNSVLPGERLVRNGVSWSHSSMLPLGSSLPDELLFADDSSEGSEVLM
Human Axl (residues H473-A894 with Q764R), sequence (P30530 473-894 Q764R): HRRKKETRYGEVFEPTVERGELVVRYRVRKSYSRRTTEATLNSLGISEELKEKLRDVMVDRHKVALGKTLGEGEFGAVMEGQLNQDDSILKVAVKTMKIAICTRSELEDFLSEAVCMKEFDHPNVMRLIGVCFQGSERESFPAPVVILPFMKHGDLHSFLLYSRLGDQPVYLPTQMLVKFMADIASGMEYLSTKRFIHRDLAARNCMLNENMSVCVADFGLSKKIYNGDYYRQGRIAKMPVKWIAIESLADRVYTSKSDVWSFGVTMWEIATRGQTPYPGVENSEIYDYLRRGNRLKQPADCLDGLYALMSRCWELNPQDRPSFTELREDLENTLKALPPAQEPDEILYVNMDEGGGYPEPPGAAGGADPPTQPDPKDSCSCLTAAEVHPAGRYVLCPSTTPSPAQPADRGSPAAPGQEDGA
KDR, sequence (P35968 20-1356): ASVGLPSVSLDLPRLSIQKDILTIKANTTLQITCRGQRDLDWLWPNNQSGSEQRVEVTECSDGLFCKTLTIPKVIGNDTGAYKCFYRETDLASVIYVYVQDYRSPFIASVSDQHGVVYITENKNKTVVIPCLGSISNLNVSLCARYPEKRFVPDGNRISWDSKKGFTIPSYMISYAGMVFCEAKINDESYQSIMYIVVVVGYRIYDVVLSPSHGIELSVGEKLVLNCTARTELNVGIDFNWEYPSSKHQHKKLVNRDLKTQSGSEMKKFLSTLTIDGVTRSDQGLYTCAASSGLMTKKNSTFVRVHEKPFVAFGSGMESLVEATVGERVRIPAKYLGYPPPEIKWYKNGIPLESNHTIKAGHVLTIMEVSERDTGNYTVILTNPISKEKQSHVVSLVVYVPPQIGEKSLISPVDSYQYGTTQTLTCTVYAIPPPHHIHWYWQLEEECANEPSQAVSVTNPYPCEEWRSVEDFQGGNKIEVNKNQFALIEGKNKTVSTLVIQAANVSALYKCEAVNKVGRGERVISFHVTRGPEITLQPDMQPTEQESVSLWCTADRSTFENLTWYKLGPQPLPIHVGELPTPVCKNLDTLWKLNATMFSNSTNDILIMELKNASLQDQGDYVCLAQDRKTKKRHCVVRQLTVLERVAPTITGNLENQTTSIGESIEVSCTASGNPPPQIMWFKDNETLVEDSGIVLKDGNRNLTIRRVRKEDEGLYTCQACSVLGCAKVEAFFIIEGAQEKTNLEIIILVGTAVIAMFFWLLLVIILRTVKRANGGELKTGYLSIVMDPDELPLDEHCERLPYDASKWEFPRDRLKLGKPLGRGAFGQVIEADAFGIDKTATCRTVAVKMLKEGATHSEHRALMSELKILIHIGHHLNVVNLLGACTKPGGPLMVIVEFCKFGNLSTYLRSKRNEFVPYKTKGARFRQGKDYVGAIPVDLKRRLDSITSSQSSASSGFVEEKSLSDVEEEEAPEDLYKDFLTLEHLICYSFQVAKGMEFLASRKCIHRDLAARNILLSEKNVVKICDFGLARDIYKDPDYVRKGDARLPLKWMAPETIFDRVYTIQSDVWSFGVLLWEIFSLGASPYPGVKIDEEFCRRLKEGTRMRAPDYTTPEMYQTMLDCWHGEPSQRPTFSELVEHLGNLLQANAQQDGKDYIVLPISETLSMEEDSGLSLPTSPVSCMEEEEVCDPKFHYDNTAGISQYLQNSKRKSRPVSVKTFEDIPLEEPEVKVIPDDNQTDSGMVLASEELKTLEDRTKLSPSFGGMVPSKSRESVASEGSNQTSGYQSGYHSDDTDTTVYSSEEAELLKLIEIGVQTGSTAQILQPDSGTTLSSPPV
AXL, sequence (P30530 26-894): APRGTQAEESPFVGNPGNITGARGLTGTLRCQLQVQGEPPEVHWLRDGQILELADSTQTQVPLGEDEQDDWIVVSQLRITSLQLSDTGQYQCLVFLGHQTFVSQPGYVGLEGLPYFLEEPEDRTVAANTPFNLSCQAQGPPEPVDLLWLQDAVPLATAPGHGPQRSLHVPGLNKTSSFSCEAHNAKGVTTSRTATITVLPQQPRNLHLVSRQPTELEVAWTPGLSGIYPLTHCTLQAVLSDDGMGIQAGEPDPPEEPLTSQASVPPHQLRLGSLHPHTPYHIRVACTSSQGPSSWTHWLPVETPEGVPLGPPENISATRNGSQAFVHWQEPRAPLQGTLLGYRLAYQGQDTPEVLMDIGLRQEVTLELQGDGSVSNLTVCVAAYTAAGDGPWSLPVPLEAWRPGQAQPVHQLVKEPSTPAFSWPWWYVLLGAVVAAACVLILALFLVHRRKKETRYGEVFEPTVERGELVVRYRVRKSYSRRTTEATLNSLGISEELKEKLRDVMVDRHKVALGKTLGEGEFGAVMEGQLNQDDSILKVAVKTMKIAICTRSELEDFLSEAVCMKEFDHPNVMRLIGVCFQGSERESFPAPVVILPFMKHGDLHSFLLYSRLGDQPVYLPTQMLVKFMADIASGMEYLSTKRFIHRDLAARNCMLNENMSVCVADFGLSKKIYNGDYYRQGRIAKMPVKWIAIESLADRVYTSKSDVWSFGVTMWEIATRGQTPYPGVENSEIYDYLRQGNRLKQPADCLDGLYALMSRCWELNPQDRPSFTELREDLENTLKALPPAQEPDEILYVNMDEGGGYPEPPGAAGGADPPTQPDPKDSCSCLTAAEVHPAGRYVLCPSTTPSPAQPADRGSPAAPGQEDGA

As a reminder, the pIC50 is −log10 of the IC50, conventionally taken in molar units. As for `COc1cc2nccc(Oc3ccc(NC(=O)C4(C(=O)Nc5ccc(F)cc5)CC4)cc3)c2cc1C(=O)NOCC(O)CO` (single isomer, unassigned) [Compound 30, 1-N-[4-[6-(2,3-dihydroxypropoxycarbamoyl)-7-methoxyquinolin-4-yl]oxyphenyl]-1-N′-(4-fluorophenyl)cyclopropane-1,1-dicarboxamide], the negative-log IC50 (pIC50) is under 6.52 in experiment [1], 6.52 to 7.00 in experiment [2], 7.00 to 8.00 in experiment [3] and 6.52 to 7.00 in experiment [4].

In the case of `COc1cc2nccc(Oc3ccc(NC(=O)C4(C(=O)Nc5ccc(F)cc5)CC4)cc3)c2cc1C(=O)NOCC(O)CO` (single isomer, unassigned) [Compound 31, 1-N-[4-[6-(2,3-dihydroxypropoxycarbamoyl)-7-methoxyquinolin-4-yl]oxyphenyl]-1-N′-(4-fluorophenyl)cyclopropane-1,1-dicarboxamide], the pIC50 is under 6.52 in experiment [1], 7.00 to 8.00 in experiment [2], 7.00 to 8.00 in experiment [3] and 6.52 to 7.00 in experiment [4].

`COc1cc2nccc(Oc3ccc(NC(=O)C4(C(=O)Nc5ccc(F)cc5)CC4)cc3)c2cc1C(=O)O` [Compound 6, 4-[4-[[1-[(4-fluorophenyl)carbamoyl]-cyclopropanecarbonyl]amino]-phenoxy]-7-methoxyquinoline-6-carboxylic acid]: the negative-log IC50 (pIC50) is at least 8.00 in experiment [5]; under 6.52 in experiment [3]; under 6.52 in experiment [4]; 7.00 to 8.00 in experiment [6]; 6.00 to 7.00 in experiment [7].

As to `COc1cc2nccc(Oc3ccc(NC(=O)C4(C(=O)Nc5ccc(F)cc5)CC4)cc3)c2cc1C(=O)NO` [Compound 20, 1-N′-(4-fluorophenyl)-1-N-[4-[6-(hydroxycarbamoyl)-7-methoxyquinolin-4-yl]oxyphenyl]cyclopropane-1,1-dicarboxamide], the negative-log IC50 (pIC50) in experiment [1], in experiment [2], in experiment [3] and in experiment [4] was 7.00 to 8.00 in each case.

As for `COc1cc2nccc(Oc3ccc(NC(=O)C4(C(=O)Nc5ccc(F)cc5)CC4)cc3)c2cc1C(=O)NOC1COC1` [Compound 26, 1-N′-(4-fluorophenyl)-1-N-[4-[7-methoxy-6-(oxetan-3-yloxycarbamoyl)quinolin-4-yl]oxyphenyl]cyclopropane-1,1-dicarboxamide], the pIC50 in experiment [1] was 7.00 to 8.00; in experiment [2], 7.00 to 8.00; in experiment [3] it was at least 8.00; in experiment [4], 7.00 to 8.00.

Turning to `COc1cc2nccc(Oc3ccc(NC(=O)C4(C(=O)Nc5ccc(F)cc5)CC4)cc3)c2cc1C(=O)NOCCO` [Compound 27, 1-N′-(4-fluorophenyl)-1-N-[4-[6-(2-hydroxyethoxycarbamoyl)-7-methoxyquinolin-4-yl]oxyphenyl]cyclopropane-1,1-dicarboxamide], the negative-log IC50 (pIC50) in experiment [1] is 7.00 to 8.00; in experiment [2], at least 8.00; in experiment [3], at least 8.00; in experiment [4], 7.00 to 8.00.

Regarding `COc1cc2nccc(Oc3ccc(NC(=O)C4(C(=O)Nc5ccc(F)cc5)CC4)cc3)c2cc1C(=O)NN` [Compound 32, 1-N′-(4-fluorophenyl)-1-N-[4-[6-(hydrazinecarbonyl)-7-methoxyquinolin-4-yl]oxyphenyl]cyclopropane-1,1-dicarboxamide], the pIC50 is at least 8.00 in experiment [1], at least 8.00 in experiment [2], at least 8.00 in experiment [3] and 7.00 to 8.00 in experiment [4].

Take `COc1cc2nccc(Oc3ccc(NC(=O)C4(C(=O)Nc5ccc(F)cc5)CC4)cc3)c2cc1C(C)=O` [Compound 34, 1-N-[4-(6-acetyl-7-methoxyquinolin-4-yl)oxyphenyl]-1-N′-(4-fluorophenyl)cyclopropane-1,1-dicarboxamide]: the pIC50 in experiment [1] is at least 8.00; in experiment [2], at least 8.00; in experiment [3] it was at least 8.00; in experiment [4] it was 7.00 to 8.00.

Take `COc1cc2c(Oc3ccc(NC(=O)C4(C(=O)Nc5ccc(F)cc5)CC4)cc3)ccnc2cc1C(=O)O` [Compound 151, 4-[4-[[1-[(4-fluorophenyl)carbamoyl]cyclopropanecarbonyl]amino]phenoxy]-6-methoxyquinoline-7-carboxylic acid]: the pIC50 in experiment [5] is 7.00 to 8.00; in experiment [3], under 6.52; in experiment [6], 7.00 to 8.00; in experiment [7], 6.00 to 7.00.

As for `O=C(O)c1ccc2c(Oc3ccc(NC(=O)C4(C(=O)Nc5ccc(F)cc5)CC4)cc3)ccnc2c1` [Compound 163, 4-[4-[[1-[(4-fluorophenyl)carbamoyl]cyclopropanecarbonyl]amino]phenoxy]quinoline-7-carboxylic acid], the negative-log IC50 (pIC50) is 7.00 to 8.00 in experiment [5], 6.00 to 7.00 in experiment [6] and 6.00 to 7.00 in experiment [7].

In the case of `COc1cc2nccc(Oc3ccc(NC(=O)C4(C(=O)Nc5ccc(F)cc5)CC4)cc3)c2cc1-c1cccn1C(=O)OC(C)(C)C` [Compound 181, tert-butyl 2-[4-[4-[[1-[(4-fluorophenyl)carbamoyl]cyclopropanecarbonyl]amino]phenoxy]-7-methoxyquinolin-6-yl]pyrrole-1-carboxylate], the pIC50 is 7.00 to 8.00 in experiment [5], 7.00 to 8.00 in experiment [6] and 6.00 to 7.00 in experiment [7].
